Read-outs that look alike come from different tables or passages of the source.
Tested on: IL-2 production by OvA-stimulated splenocytes
Assay: OvA-stimulated production of IL-2 by splenocytes of OvA-immunized mice
[1] = OvA/Alum, 0.1 μg/kg i/p, OvA 1 μg/ml
[2] = OvA/Alum, 0.1 μg/kg i/p, OvA 10 μg/ml
[3] = OvA/Alum, 0.1 μg/kg i/p, OvA 25 μg/ml
[4] = OvA/Alum, 0.1 μg/kg i/p, OvA 100 μg/ml
[5] = OvA/Alum, 1.0 μg/kg i/p, OvA 1 μg/ml
[6] = OvA/Alum, 1.0 μg/kg i/p, OvA 10 μg/ml
[7] = OvA/Alum, 1.0 μg/kg i/p, OvA 25 μg/ml
[8] = OvA/Alum, 1.0 μg/kg i/p, OvA 100 μg/ml
[9] = OvA/FA, 0.1 μg/kg i/p, OvA 1 μg/ml
[10] = OvA/FA, 0.1 μg/kg i/p, OvA 10 μg/ml
[11] = OvA/FA, 0.1 μg/kg i/p, OvA 25 μg/ml
[12] = OvA/FA, 0.1 μg/kg i/p, OvA 100 μg/ml
[13] = OvA/FA, 1.0 μg/kg i/p, OvA 1 μg/ml
[14] = OvA/FA, 1.0 μg/kg i/p, OvA 10 μg/ml
[15] = OvA/FA, 1.0 μg/kg i/p, OvA 25 μg/ml
[16] = OvA/FA, 1.0 μg/kg i/p, OvA 100 μg/ml

Description: The OvA was administered subcutaneously to the crest in a volume of 200 μl. Mice were immunized on day 1 with OvA in complete Freund's adjuvant (CFA; Sigma) and on day 15 with the antigen in incomplete Freund's adjuvant (IFA; Sigma). The immune response was analyzed on day 29. Mice were also immunized with 10 μg/mouse of OvA using Alum as an adjuvant.
Thymuses and spleens from mice of each treatment group were pooled, and then minced with scissors. The minced tissues were suspended in sterile PBS to form cell suspensions, filtered through a double gauze layer and centrifuged. Cells were washed twice with PBS, re-suspended in RPMI-1640 (Sigma) with 2.0 mM of L-glutamine, 50 μM of mercaptoethanol, and 10 μg/ml of gentamycin (complete medium); and cell counts were made. (The splenocyte suspension was washed with a 0.86% solution of NH4Cl to pre-lyse erthrocytes.)
Assessment of Mitogen- and Antigen-Induced Production of Cytokines: Thymic cells (1×10^6/well) in complete medium with 2% FCS were stimulated with ConA (0, 1, and 2 μg/ml). Splenocytes (1×10^6/well) in complete medium with 5% FCS were stimulated with ConA (0, 1, and 5 μg/ml) and with OvA (0-100 μg/ml). […] Supernatants from OvA-stimulated cultures were collected after 72 hours. Supernatants from both cultures were frozen, and kept at 20° C. Concentrations of IL-2, IL-4, IL-10, IL-12R40 and IFNγ in the supernatants were determined by solid-phase EIA with EIA Expansion Kits, available from BD Biosciences (formerly Pharmingen), in accordance with the manufacturer's instructions.

N[C@H](CCC(=O)N[C@@H](Cc1c[nH]c2ccccc12)C(=O)O)C(=O)O [SCV-07, γ-D-glutamyl-L-tryptophan]
activity at 0.0001 mg/kg (Mus musculus, Splenocyte, po, read-out: Production of IL-2 by splenocytes, % (% of control), OvA/FA, 0.1 μg/kg per os, OvA 100 μg/ml): 44.8%
activity at 0.001 mg/kg (Mus musculus, Splenocyte, po, read-out: Production of IL-2 by splenocytes, % (% of control), OvA/FA, 1.0 μg/kg per os, OvA 0 μg/ml): 100%
activity at 0.001 mg/kg (Mus musculus, Splenocyte, po, read-out: Production of IL-2 by splenocytes, % (% of control), OvA/FA, 1.0 μg/kg per os, OvA 1 μg/ml): 67.6%
activity at 0.001 mg/kg (Mus musculus, Splenocyte, po, read-out: Production of IL-2 by splenocytes, % (% of control), OvA/FA, 1.0 μg/kg per os, OvA 10 μg/ml): 248%
activity at 0.001 mg/kg (Mus musculus, Splenocyte, po, read-out: Production of IL-2 by splenocytes, % (% of control), OvA/FA, 1.0 μg/kg per os, OvA 25 μg/ml): 125%
activity at 0.001 mg/kg (Mus musculus, Splenocyte, po, read-out: Production of IL-2 by splenocytes, % (% of control), OvA/FA, 1.0 μg/kg per os, OvA 100 μg/ml): 231%
activity at 0.01 mg/kg (Mus musculus, Splenocyte, po, read-out: Production of IL-2 by splenocytes, % (% of control), OvA/FA, 10.0 μg/kg per os, OvA 0 μg/ml): 100%
activity at 0.01 mg/kg (Mus musculus, Splenocyte, po, read-out: Production of IL-2 by splenocytes, % (% of control), OvA/FA, 10.0 μg/kg per os, OvA 1 μg/ml): 49.2%
activity at 0.01 mg/kg (Mus musculus, Splenocyte, po, read-out: Production of IL-2 by splenocytes, % (% of control), OvA/FA, 10.0 μg/kg per os, OvA 10 μg/ml): 187%
activity at 0.01 mg/kg (Mus musculus, Splenocyte, po, read-out: Production of IL-2 by splenocytes, % (% of control), OvA/FA, 10.0 μg/kg per os, OvA 25 μg/ml): 176%
activity at 0.01 mg/kg (Mus musculus, Splenocyte, po, read-out: Production of IL-2 by splenocytes, % (% of control), OvA/FA, 10.0 μg/kg per os, OvA 100 μg/ml): 293%
Production of IL-2 by splenocytes (OvA/Alum, 0.1 μg/kg i/p, OvA 0 μg/ml): 163.0 pg/mL
Production of IL-2 by splenocytes [1]: 190.3 pg/mL
Production of IL-2 by splenocytes, % (% of control) [1]: 116.7%
Production of IL-2 by splenocytes [2]: 87.5 pg/mL
Production of IL-2 by splenocytes, % (% of control) [2]: 53.7%
Production of IL-2 by splenocytes [3]: 83.5 pg/mL
Production of IL-2 by splenocytes, % (% of control) [3]: 51.2%
Production of IL-2 by splenocytes [4]: 84.8 pg/mL
Production of IL-2 by splenocytes, % (% of control) [4]: 52.0%
Production of IL-2 by splenocytes (OvA/Alum, 0.1 μg/kg per os, OvA 0 μg/ml): 172.9 pg/mL
Production of IL-2 by splenocytes (OvA/Alum, 0.1 μg/kg per os, OvA 1 μg/ml): 163.0 pg/mL
Production of IL-2 by splenocytes (OvA/Alum, 0.1 μg/kg per os, OvA 10 μg/ml): 124.5 pg/mL
Production of IL-2 by splenocytes (OvA/Alum, 0.1 μg/kg per os, OvA 25 μg/ml): 255.5 pg/mL
Production of IL-2 by splenocytes (OvA/Alum, 0.1 μg/kg per os, OvA 100 μg/ml): 90.8 pg/mL
Production of IL-2 by splenocytes (OvA/Alum, 1.0 μg/kg i/p, OvA 0 μg/ml): 113.4 pg/mL
Production of IL-2 by splenocytes [5]: 173.7 pg/mL
Production of IL-2 by splenocytes, % (% of control) [5]: 153.2%
Production of IL-2 by splenocytes [6]: 167.9 pg/mL
Production of IL-2 by splenocytes, % (% of control) [6]: 148.1%
Production of IL-2 by splenocytes [7]: 353.8 pg/mL
Production of IL-2 by splenocytes, % (% of control) [7]: 312.0%
Production of IL-2 by splenocytes [8]: 205.8 pg/mL
Production of IL-2 by splenocytes, % (% of control) [8]: 181.5%
Production of IL-2 by splenocytes (OvA/Alum, 1.0 μg/kg per os, OvA 0 μg/ml): 160.9 pg/mL
Production of IL-2 by splenocytes (OvA/Alum, 1.0 μg/kg per os, OvA 1 μg/ml): 92.8 pg/mL
Production of IL-2 by splenocytes (OvA/Alum, 1.0 μg/kg per os, OvA 10 μg/ml): 181.9 pg/mL
Production of IL-2 by splenocytes (OvA/Alum, 1.0 μg/kg per os, OvA 25 μg/ml): 121.3 pg/mL
Production of IL-2 by splenocytes (OvA/Alum, 1.0 μg/kg per os, OvA 100 μg/ml): 120.2 pg/mL
Production of IL-2 by splenocytes (OvA/Alum, 10.0 μg/kg per os, OvA 0 μg/ml): 289.4 pg/mL
Production of IL-2 by splenocytes (OvA/Alum, 10.0 μg/kg per os, OvA 1 μg/ml): 551.9 pg/mL
Production of IL-2 by splenocytes (OvA/Alum, 10.0 μg/kg per os, OvA 10 μg/ml): 252.5 pg/mL
Production of IL-2 by splenocytes (OvA/Alum, 10.0 μg/kg per os, OvA 25 μg/ml): 218.7 pg/mL
Production of IL-2 by splenocytes (OvA/Alum, 10.0 μg/kg per os, OvA 100 μg/ml): 300.8 pg/mL
Production of IL-2 by splenocytes (OvA/FA, 0.1 μg/kg i/p, OvA 0 μg/ml): 78.4 pg/mL
Production of IL-2 by splenocytes [9]: 10.2 pg/mL
Production of IL-2 by splenocytes, % (% of control) [9]: 13.0%
Production of IL-2 by splenocytes [10]: 72.7 pg/mL
Production of IL-2 by splenocytes, % (% of control) [10]: 92.7%
Production of IL-2 by splenocytes [11]: 85.8 pg/mL
Production of IL-2 by splenocytes, % (% of control) [11]: 109.4%
Production of IL-2 by splenocytes [12]: 95.5 pg/mL
Production of IL-2 by splenocytes, % (% of control) [12]: 121.8%
Production of IL-2 by splenocytes (OvA/FA, 0.1 μg/kg per os, OvA 0 μg/ml): 211.8 pg/mL
Production of IL-2 by splenocytes (OvA/FA, 0.1 μg/kg per os, OvA 1 μg/ml): 68.7 pg/mL
Production of IL-2 by splenocytes (OvA/FA, 0.1 μg/kg per os, OvA 10 μg/ml): 92.9 pg/mL
Production of IL-2 by splenocytes (OvA/FA, 0.1 μg/kg per os, OvA 25 μg/ml): 252.5 pg/mL
Production of IL-2 by splenocytes (OvA/FA, 0.1 μg/kg per os, OvA 100 μg/ml): 94.8 pg/mL
Production of IL-2 by splenocytes (OvA/FA, 1.0 μg/kg i/p, OvA 0 μg/ml): 147.7 pg/mL
Production of IL-2 by splenocytes [13]: 116.5 pg/mL
Production of IL-2 by splenocytes, % (% of control) [13]: 78.9%
Production of IL-2 by splenocytes [14]: 317.3 pg/mL
Production of IL-2 by splenocytes, % (% of control) [14]: 214.8%
Production of IL-2 by splenocytes [15]: 363.1 pg/mL
Production of IL-2 by splenocytes, % (% of control) [15]: 245.8%
Production of IL-2 by splenocytes [16]: 564.4 pg/mL
Production of IL-2 by splenocytes, % (% of control) [16]: 382.1%
Production of IL-2 by splenocytes (OvA/FA, 1.0 μg/kg per os, OvA 0 μg/ml): 122.4 pg/mL
Production of IL-2 by splenocytes (OvA/FA, 1.0 μg/kg per os, OvA 1 μg/ml): 82.7 pg/mL
Production of IL-2 by splenocytes (OvA/FA, 1.0 μg/kg per os, OvA 10 μg/ml): 304.2 pg/mL
Production of IL-2 by splenocytes (OvA/FA, 1.0 μg/kg per os, OvA 25 μg/ml): 152.9 pg/mL
Production of IL-2 by splenocytes (OvA/FA, 1.0 μg/kg per os, OvA 100 μg/ml): 282.8 pg/mL
Production of IL-2 by splenocytes (OvA/FA, 10.0 μg/kg per os, OvA 0 μg/ml): 163 pg/mL
Production of IL-2 by splenocytes (OvA/FA, 10.0 μg/kg per os, OvA 1 μg/ml): 80.2 pg/mL
Production of IL-2 by splenocytes (OvA/FA, 10.0 μg/kg per os, OvA 10 μg/ml): 305.4 pg/mL
Production of IL-2 by splenocytes (OvA/FA, 10.0 μg/kg per os, OvA 25 μg/ml): 287.2 pg/mL
Production of IL-2 by splenocytes (OvA/FA, 10.0 μg/kg per os, OvA 100 μg/ml): 478.2 pg/mL

Reference: patent US20090074815A1, “Immunomodulator Compounds as Vaccine Enhancers” (SCICLONE PHARMACEUTICALS, INC., priority 2005, published 2009)
